The values that follow come from paper PMC10823475, “Design, Synthesis, and Evaluation of Inhibitors of Hedgehog Acyltransferase” (Journal of Medicinal Chemistry, 2024).

Where “and” joins values, the source holds several entries; their conditions need not be identical. Equal entries are not always repeated. Where two headings read alike, the source gives them in different places.

Series [1] can be described thus: Microsomal incubations, human liver microsomes. It counts as in vitro ADME. As to conditions: 1 μM. On the procedure:
(§1) Metabolic stability assays were performed using a Microlab Star liquid handling workstation (Hamilton Robotics, Bonaduz, Switzerland). Test compounds (1 μM, 1% DMSO) were preincubated at 37 °C for 10 min in 0.5 mg/mL female CD1 mouse and mixed gender human liver microsomes in 10 mM phosphate buffered saline (PBS; Sigma-Aldrich Company Ltd. (Dorset, UK)). Microsomes were purchased either from Sekisui XenoTech, LLC (Kansas City, USA) or BioreclamationIVT (Frankfurt Am Main, Germany). Reactions were initiated by the addition of NADPH (final concentration 1 mM). At 0, 15, and 30 min, aliquots were removed from each incubation and quenched in 3 volumes of ice-cold methanol containing olomoucine (Sigma-Aldrich, Dorset, UK) as an internal standard. […] The percentage metabolized was calculated by comparing peak area ratio (peak area test compound/peak area of internal standard) at t = 15 and 30 min versus t = 0 min.

The nature of series [2]: PAMPA parallel artificial membrane permeability assay. As to conditions: for recovery at 16 h, 10 µM / Papp at 16 h, 10 μM: PAMPA.
Description: Passive diffusion was estimated using the PAMPA method. […] The donor plate was a MultiScreen-IP Plate with 0.45 μm hydrophobe Immobilon-P Membrane (Millipore, #MAIPNTR10) and the acceptor plate was a MultiScreen 96-well Transport Receiver Plate (Millipore, #MATRNPS50). […] Acceptor pH was 7.4. All samples were analyzed against an external, matrix-matched, standard curve by LC-MS/MS with a Waters (Elstree, Herts. UK) Acquity H-class LC system coupled to a Waters TQ-S mass spectrometer. Permeability values (cm/s) were calculated using the following equation: [drawing 2] and VD = volume of donor; VA = volume of acceptor; area = surface area of the membrane · porosity.
Series [3] deals with Caco-2 human colon carcinoma cell line. The experiment in a line: Caco-2 permeability assay. It counts as in vitro ADME. On the procedure: (§2) Apparent permeability (Papp) was determined in the Caco-2 human colon carcinoma cell line. Cells were maintained in DMEM containing 10% fetal bovine serum, penicillin and streptomycin in a humidified atmosphere with 5% CO2 for 10 days. Cells were plated onto a cell culture assembly plate (Millipore, UK) and monolayer confluency was checked using a TEER electrode prior to the assay. Medium was washed off and replaced in the appropriate apical and basal wells with HBSS buffer (pH 7.4) containing compounds (10 μM, 1% DMSO). The Caco-2 plate was incubated for 2 h at 37 °C, and Lucifer yellow was used to confirm membrane integrity postassay. […] Papp was determined as follows: [drawing 1] where Vr = volume of receptical; A = surface area of monolayer; C0 = Initial compound concentration in donor.

Series [4] in a line: Caco-2 permeability assay. It counts as in vitro ADME, human. To be noted: human; for Papp A→B at 2 h, 10 μM / Papp B→A at 2 h, 10 μM / recovery at 2 h, 10 µM: Caco-2, pH 7.4, 10 µM; for efflux ratio at 2 h, 10 µM: Caco-2, pH 7.4, read-out: Caco-2 Eflux Ratio (B>A/A>B). On the procedure:
as §2

Series [5] is described as follows: Microsomal incubations, mouse liver microsomes. Format: in vitro ADME. To be noted: 1 μM. Here is the method:
as §1

The next series has as its system HEK293a SHH+ cells. The experiment in a line: MTS assay, cytotoxicity (72 h). It counts as cell-based. To be noted: for decrease in cell viability / cell survival: 12.5 μM. Summed up:
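Cells plated at 5000/well, cultured 24 h, then exposed to analogues (0.14–100 μM final) in DMEM/10% FBS for 72 h. MTS/PMS added for 3 h at 37 °C and absorbance read at 490 nm; data normalised to DMSO vehicle and puromycin (2 μg/mL) wells, curves fitted with a variable-slope sigmoidal model.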

The next series concerns the target HHAT. On the set-up: method as in PMID 34890564, PMID 33768725. To be noted: read-out: Ki, competitive inhibitor of Pal-CoA; cited from earlier work.
Where [6] appears, read: pH 5, PAMPA Papp pH 5, donor pH 5, 10 µM.
[7] abbreviates: pH 5, PAMPA Permeability Class pH 5, donor pH 5, 10 µM.
Where [8] appears, read: pH 6.5, PAMPA Papp pH 6.5, donor pH 6.5, 10 µM.
Where [9] appears, read: pH 6.5, PAMPA Permeability Class pH 6.5, donor pH 6.5, 10 µM.
[10] abbreviates: pH 7.4, PAMPA Papp pH 7.4, donor pH 7.4, 10 µM.
Setting [11] is: pH 7.4, PAMPA Permeability Class pH 7.4, donor pH 7.4, 10 µM.
[12] abbreviates: + Verapamil (P-glycoprotein inhibitor).
[13] abbreviates: + Verapamil (P-glycoprotein inhibitor), read-out: Caco-2 A>B Recovery.
The mark [14] stands for this setting: + Verapamil (P-glycoprotein inhibitor), read-out: Caco-2 B>A Recovery.
Where [15] appears, read: without Verapamil, read-out: Caco-2 A>B Recovery.
[16] abbreviates: without Verapamil, read-out: Caco-2 B>A Recovery.

Turning to `CCC(C)CNCC(=O)N1CCc2sccc2C1c1cccc(C)n1` (stereo not shown) [Compound 22], the “HLM % metabolized after 15 min” value in series [1] turned out to be 36.9%. Moreover, in series [1], the “HLM % metabolized after 30 min” value stood at 56.2%. The recovery at 16 h, 10 µM in series [2] (pH 5) was under 65%; in series [2] (pH 6.5) it was under 23%; in series [2] (pH 7.4), under 15%. Also, the apparent permeability coefficient (Papp) at 16 h, 10 μM is under 0.4 ×10⁻⁶ cm/s in series [2] (setting [6]); under 5 ×10⁻⁶ cm/s in series [2] (setting [7]); 13 ×10⁻⁶ cm/s in series [2] (setting [8]); 5 to 20 ×10⁻⁶ cm/s in series [2] (setting [9]); 42.4 ×10⁻⁶ cm/s in series [2] (setting [10]); over 20 ×10⁻⁶ cm/s in series [2] (setting [11]). Moreover, the “PAMPA passive permeability” value in series [2] (pH 7.4) was “high passive permeability”. Moreover, the “Caco-2 efflux” value in series [3] was “no detectable efflux”. Also, the “Caco-2 permeability” value in series [3] is listed as “moderate-high permeability”. Further, the results for the Papp A→B at 2 h, 10 μM in series [4] (setting [12]) and in series [4] (without Verapamil) were 35.5 ± 2 ×10⁻⁶ cm/s and 39.2 ± 0.7 ×10⁻⁶ cm/s, respectively. Also, the Papp B→A at 2 h, 10 μM in series [4] (setting [12]) is 22.7 ± 3.3 ×10⁻⁶ cm/s; in series [4] (without Verapamil) it was 29.7 ± 0.2 ×10⁻⁶ cm/s. The recovery at 2 h, 10 µM in series [4] (setting [13]) worked out at 70 ± 2.5%; in series [4] (setting [14]) it was 75.7 ± 2%; in series [4] (setting [15]), 88.7 ± 0.1%; in series [4] (setting [16]), 108 ± 3.1%. Further, in series [4], the efflux ratio at 2 h, 10 µM worked out at 0.76. In addition, in series [5], the “MLM % metabolized after 15 min” value is 98.1% and > 90%. In addition, the “MLM % metabolized after 30 min” value in series [5] is recorded as 99.7%.
As for `CCC(C)CNCC(=O)N1CCc2sccc2C1c1cccc(C)c1` (stereo not shown) [Compound 17], in the series on HEK293a SHH+ cells, the “toxicity to HEK293a SHH+ cells” value is on record as “toxic”. The “HLM % metabolized after 15 min” value in series [1] is reported as 44.4%. Moreover, in series [1], the “HLM % metabolized after 30 min” value turned out to be 66.7%. Also, the recovery at 16 h, 10 µM in series [2] (pH 5) was under 31%; in series [2] (pH 6.5) it was under 10%; in series [2] (pH 7.4), under 10%. Besides, the apparent permeability (Papp) at 16 h, 10 μM in series [2] (setting [6]) was under 0.7 ×10⁻⁶ cm/s; in series [2] (setting [7]) it was under 5 ×10⁻⁶ cm/s; in series [2] (setting [8]), under 9.7 ×10⁻⁶ cm/s; in series [2] (setting [9]), 5 to 20 ×10⁻⁶ cm/s; in series [2] (setting [10]), under 4.5 ×10⁻⁶ cm/s; in series [2] (setting [11]) it was under 5 ×10⁻⁶ cm/s. In addition, the apical-to-basolateral permeability (Papp A→B) at 2 h, 10 μM in series [4] (setting [12]) turned out to be 14.2 ± 0.8 ×10⁻⁶ cm/s; in series [4] (without Verapamil) it was 17 ± 2.5 ×10⁻⁶ cm/s. Also, the figures for the apparent permeability from basolateral to apical (Papp B→A) at 2 h, 10 μM in series [4] (setting [12]) and in series [4] (without Verapamil) were 19.8 ± 2 ×10⁻⁶ cm/s and 17.4 ± 4.1 ×10⁻⁶ cm/s, respectively. Also, the recovery at 2 h, 10 µM in series [4] (setting [13]) was determined as 58.6 ± 0.9%; in series [4] (setting [14]), 66.6 ± 1.9%; in series [4] (setting [15]) it was 60.5 ± 2.4%; in series [4] (setting [16]) it was 80.4 ± 2.2%. In addition, the efflux ratio at 2 h, 10 µM in series [4] is 1.02. For the same molecule, in series [5], the “MLM % metabolized after 15 min” value was 99.5% and > 90%. Besides, the “MLM % metabolized after 30 min” value in series [5] is listed as 100.0%.
In the case of `C=CCNCC(=O)N1CCc2sccc2C1COc1ccc(Cl)cc1` (stereo not shown) [Compound 2], in the series on HEK293a SHH+ cells, the “decrease in cell viability / cell survival” value amounted to 44%. Besides, the “HLM % metabolized after 15 min” value in series [1] came to 43.0%. In addition, in series [1], the “HLM % metabolized after 30 min” value is recorded as 69.5%. In addition, the recovery at 16 h, 10 µM was under 31% in series [2] (pH 5), under 10% in series [2] (pH 6.5) and under 10% in series [2] (pH 7.4). In addition, the Papp at 16 h, 10 μM in series [2] (setting [6]) is under 1.5 ×10⁻⁶ cm/s; in series [2] (setting [7]), under 5 ×10⁻⁶ cm/s; in series [2] (setting [8]), 10.9 ×10⁻⁶ cm/s; in series [2] (setting [9]), 5 to 20 ×10⁻⁶ cm/s; in series [2] (setting [10]), 20.4 ×10⁻⁶ cm/s; in series [2] (setting [11]), over 20 ×10⁻⁶ cm/s. The “PAMPA passive permeability” value in series [2] (pH 7.4) is “high passive permeability”. Besides, the “Caco-2 efflux” value in series [3] is given as “no detectable efflux”. For the same molecule, the “Caco-2 permeability” value in series [3] is on record as “moderate-high permeability”. Also, the figures for the Papp A→B at 2 h, 10 μM in series [4] (setting [12]) and in series [4] (without Verapamil) were 8.3 ± 0.9 ×10⁻⁶ cm/s and 14.5 ± 0.4 ×10⁻⁶ cm/s, respectively. The basolateral-to-apical permeability (Papp B→A) at 2 h, 10 μM was found to be 12.5 ± 1.9 ×10⁻⁶ cm/s in series [4] (setting [12]) and 12.4 ± 2.1 ×10⁻⁶ cm/s in series [4] (without Verapamil). Besides, the recovery at 2 h, 10 µM in series [4] (setting [13]) was found to be 41.1 ± 1%; in series [4] (setting [14]) it was 51.6 ± 1%; in series [4] (setting [15]), 56.7 ± 1.9%; in series [4] (setting [16]), 87.8 ± 1.2%. In series [4], the efflux ratio at 2 h, 10 µM amounted to 0.86. Besides, the “MLM % metabolized after 15 min” value in series [5] is 90.8% and > 90%. The “MLM % metabolized after 30 min” value in series [5] worked out at 98.4%.
On to `Cc1cccc([C@H]2c3ccsc3CCN2C(=O)CNCC(C)C)n1` [Compound 30], for which the Ki on HHAT is 38 nM. Besides, the “decrease in cell viability / cell survival” value with HEK293a SHH+ cells was under 30%. For the same molecule, in the series with HEK293a SHH+ cells (72 h, read-out: MTS Assay (HEK293a SHH+) CC50 (CI95)), the CC50 is over 100000 nM. Further, in series [1], the “HLM % metabolized after 15 min” value turned out to be 28.8% and the “HLM % metabolized after 30 min” value is recorded as 36.9%. Further, in series [5], the “MLM % metabolized after 15 min” value is > 90% and 95.5%; the “MLM % metabolized after 30 min” value was 99.7%.
On to `CC(=O)N1CCc2sccc2C1c1ccccc1` (stereo not shown) [Compound 5], for which the “decrease in cell viability / cell survival” value in the series on HEK293a SHH+ cells was under 30%. Further, the “HLM % metabolized after 15 min” value in series [1] turned out to be 52.5%. Moreover, the “HLM % metabolized after 30 min” value in series [1] is on record as 64.3%. For the same molecule, the recovery at 16 h, 10 µM in series [2] (pH 5) turned out to be 95%; in series [2] (pH 6.5) it was 98%; in series [2] (pH 7.4), 91%. Further, the apparent permeability (Papp) at 16 h, 10 μM in series [2] (setting [6]) is over 200 ×10⁻⁶ cm/s; in series [2] (setting [7]) it was over 20 ×10⁻⁶ cm/s; in series [2] (setting [8]), 117 ×10⁻⁶ cm/s; in series [2] (setting [9]), over 20 ×10⁻⁶ cm/s; in series [2] (setting [10]) it was over 200 ×10⁻⁶ cm/s; in series [2] (setting [11]), over 20 ×10⁻⁶ cm/s. Moreover, in series [2] (over the full pH range tested), the “PAMPA permeability” value is “high permeability”. Further, the “PAMPA passive permeability” value in series [2] (pH 7.4) is “high passive permeability”. The “MLM % metabolized after 15 min” value in series [5] is 99.5% and > 90%. Further, in series [5], the “MLM % metabolized after 30 min” value came out at 99.4%.
